Earlier results, collected in US20120328537A1, “Topical wound management formulation” (priority 2011, published 2012).

Tested on: Strep Mutans
Settings: in particular Strep Mutans, the main bacteria responsible for dental caries

OC[C@@H](O)[C@H](O)[C@@H](O)CO [Xylitol]
growth of bacteria: inhibit the growth of bacteria
